Calls of active or inactive are those of the source. The calls are words filed in the database; no cut-off is given here.
What was measured:
Quadruplex DNA [1] = assay: Binding affinity to c-MYC G4-quadruplex DNA (unknown origin) using fluorescent tagged FPu18T model assessed as stabilization by measuring change in melting temperature at 2 uM incubated in presence of non-fluorescent ds26 DNA by fluorescence based analysis; assay type: nucleic-acid assay
Quadruplex DNA [2] = assay: Binding affinity to c-MYC G4-quadruplex DNA (unknown origin) using fluorescent tagged FPu18T model assessed as stabilization by measuring change in melting temperature at 2 uM by fluorescence based analysis; assay type: nucleic-acid assay
HepG2 [3] = assay: Antiproliferative activity against human HepG2 cells assessed as inhibition of cell growth incubated for 72 hrs by MTT assay; assay type: functional, cell-based; settings: HepG2, 72 h
DNA = assay: Binding affinity to duplex DNA (unknown origin) using fluorescent tagged F10T model assessed as stabilization by measuring change in melting temperature at 2 uM by fluorescence based analysis; assay type: nucleic-acid assay
[4] = Toxicity in ICR mouse xenografted with […] H22 cells assessed as abnormalities in heart at 20 mg/kg, iv administered for 21 days; assay type: organism-based; settings: in vivo, 504 h, time 21 day
HepG2 [5] = assay: Downregulation of p-PI3K protein expression in human HepG2 cells incubated for 72 hrs by Western blot analysis; assay type: functional, cell-based; settings: dose 0-0.6 µM
[6] = Toxicity in ICR mouse xenografted with […] H22 cells assessed as abnormalities in kidney at 20 mg/kg, iv administered for 21 days; assay type: organism-based; settings: in vivo, 504 h, time 21 day
HepG2 [7] = assay: Effect on PI3K total protein level in human HepG2 cells at 0 to 0.6 uM incubated for 72 hrs by Western blot analysis; assay type: functional, cell-based; settings: dose 0-0.6 µM
HepG2 [8] = assay: Induction of cell cycle arrest in human HepG2 cells assessed as accumulation of cells at G2 phase at 0.15 to 0.6 uM incubated for 72 hrs by RNaseA/PI staining based flow cytometry analysis (reference value: 12.99%); assay type: functional; settings: dose 0.15-0.6 µM
[9] = Antiproliferative activity against human LX2 cells assessed as inhibition of cell growth incubated for 72 hrs by MTT assay; assay type: functional, cell-based; settings: LX-2, 72 h
H22 [10] = assay: Antitumor activity against […] xenografted in ICR mouse assessed as inhibition of tumor growth at 20 mg/kg, iv administered for 21 days and measured every 2 days relative to control; assay type: functional; settings: H22, 504 h, time 21 day, read-out: TGI
HepG2 [11] = assay: Induction of cell cycle arrest in human HepG2 cells assessed as accumulation of cells at S phase at 0.15 to 0.6 uM incubated for 72 hrs by RNaseA/PI staining based flow cytometry analysis (reference value: 35.98%); assay type: functional; settings: dose 0.15-0.6 µM
[12] = Toxicity in ICR mouse xenografted with […] H22 cells assessed as abnormalities in spleen at 20 mg/kg, iv administered for 21 days; assay type: organism-based; settings: in vivo, 504 h, time 21 day
HepG2 [13] = assay: Potency index, ratio of cisplatin IC50 to test compound IC50 for antiproliferative activity against cisplatin-resistant human HepG2 cells assessed as inhibition of cell growth incubated for 72 hrs by MTT assay; assay type: functional
HepG2 [14] = assay: Induction of apoptosis in human HepG2 cells assessed as increase in Bax protein expression incubated for 72 hrs by Western blot analysis; assay type: functional, cell-based; settings: dose 0.15-0.6 µM
HepG2 [15] = assay: Effect on AKT total protein level in human HepG2 cells at 0 to 0.6 uM incubated for 72 hrs by Western blot analysis; assay type: functional, cell-based; settings: dose 0-0.6 µM
[16] = Toxicity in ICR mouse xenografted with […] H22 cells assessed as abnormalities in liver at 20 mg/kg, iv administered for 21 days; assay type: organism-based; settings: in vivo, 504 h, time 21 day
H22 [17] = assay: Antitumor activity against […] xenografted in ICR mouse assessed as reduction in tumor volume administered intravenously for 21 days and measured every 2 days; assay type: functional, cell-based; settings: dose 10-20 mg/kg, route iv, time 21.0 day
HepG2 [18] = assay: Induction of G2/M phase cell cycle arrest in human HepG2 cells assessed as upregulation of p-cdc25c protein expression incubated for 72 hrs by Western blot analysis; assay type: functional, cell-based; settings: dose 0.15-0.6 µM
HepG2 [19] = assay: Induction of G2/M phase cell cycle arrest in human HepG2 cells assessed as downregulation of cyclinB1 protein expression incubated for 72 hrs by Western blot analysis; assay type: functional, cell-based; settings: dose 0.15-0.6 µM
HepG2 [20] = assay: Induction of apoptosis in human HepG2 cells assessed as increase in total apoptotic cells at 0.15 to 0.6 uM incubated for 72 hrs by AnnexinV-FITC/propidium iodide staining based flow cytometry (reference value: 4.1%); assay type: functional; settings: dose 0.15-0.6 µM
HepG2 [21] = assay: Induction of ROS production in human HepG2 cells assessed as increase in ROS positive cells at 0.06 uM preincubated with ROS scavenger, NAC followed by compound addition and further incubated for 72 hrs by DCF-DA staining based flow cytometry analysis (reference value: 4.21%); assay type: functional
Quadruplex DNA [22] = assay: Stabilization of c-MYC G4-quadruplex DNA in human HepG2 cells assessed as BG4 foci formation at 0.3 uM incubated for 72 hrs by confocal laser scanning microscope based analysis; assay type: cell-based
HepG2 [23] = assay: Induction of apoptosis in human HepG2 cells assessed as reduction in Bcl-2 protein expression at […] incubated for 72 hrs by Western blot analysis; assay type: functional, cell-based; settings: dose lower 0.15 µM
[24] = Toxicity in ICR mouse xenografted with […] H22 cells assessed as abnormalities in lung at 20 mg/kg, iv administered for 21 days; assay type: organism-based; settings: in vivo, 504 h, time 21 day
[25] = AUC (0 to t) in Sprague-Dawley rat at 1 mg/kg, iv measured for 24 hrs by LC-MS/MS analysis; assay type: ADME, organism-based; set-up: dose 1 mg/kg, time 24 hrs, route iv; settings: in vivo
HepG2 [26] = assay: Induction of G2/M phase cell cycle arrest in human HepG2 cells assessed as downregulation of cdc2 protein expression incubated for 72 hrs by Western blot analysis; assay type: functional, cell-based; settings: dose 0.15-0.6 µM
HepG2 [27] = assay: Induction of apoptosis in human HepG2 cells assessed as increase in cleaved caspase 3 expression incubated for 72 hrs by Western blot analysis; assay type: functional, cell-based; settings: dose 0.15-0.6 µM
Huh-7 = assay: Antiproliferative activity against human Huh-7 cells assessed as inhibition of cell growth incubated for 72 hrs by MTT assay; assay type: functional, cell-based; settings: Huh-7, 72 h
HepG2 [28] = assay: Antiproliferative activity against cisplatin-resistant human HepG2 cells assessed as inhibition of cell growth incubated for 72 hrs by MTT assay; assay type: functional, cell-based; settings: HepG2, 72 h
Quadruplex DNA [29] = assay: Stabilization of c-MYC G4-quadruplex DNA in human HepG2 cells assessed as colocalization with BG4 in G4-forming region at 0.3 uM incubated for 72 hrs by confocal laser scanning microscope based analysis; assay type: cell-based
[30] = Initial plasma concentration in Sprague-Dawley rat at 1 mg/kg, iv by LC-MS/MS analysis; assay type: ADME, organism-based
[31] = Toxicity in ICR mouse xenografted with […] H22 cells assessed as reduction in body weight at 10 to 20 mg/kg, iv administered for 21 days and measured every 2 days; assay type: organism-based; settings: in vivo, 504 h, dose 10-20 mg/kg, time 21 day
HepG2 [32] = assay: Induction of mitochondrial dysfunction in human HepG2 cells assessed as increase in cells with collapsed mitochondrial membrane potential at 0.15 to 0.6 uM incubated for 72 hrs by JC-1 staining based flow cytometry analysis (reference value: 4.84%); assay type: functional; settings: dose 0.15-0.6 µM
HepG2 [33] = assay: Potency index, ratio of cisplatin IC50 to test compound IC50 for antiproliferative activity against human HepG2 cells assessed as inhibition of cell growth incubated for 72 hrs by MTT assay; assay type: functional
Hep 3B2 = assay: Antiproliferative activity against human Hep3B cells assessed as inhibition of cell growth incubated for 72 hrs by MTT assay; assay type: functional, cell-based
Quadruplex DNA [34] = assay: Stabilization of c-MYC G4-quadruplex DNA in human HepG2 cells assessed as downregulation of c-myc expression incubated for 72 hrs by Western blot analysis; assay type: cell-based; settings: dose 0.15-0.6 µM
[35] = MRT (0 to t) in Sprague-Dawley rat at 1 mg/kg, iv measured for 24 hrs by LC-MS/MS analysis; assay type: ADME, organism-based; settings: in vivo
[36] = Clearance in Sprague-Dawley rat at 1 mg/kg, iv measured for 24 hrs by LC-MS/MS analysis; assay type: ADME, organism-based; settings: in vivo
HepG2 [37] = assay: Induction of ROS production in human HepG2 cells assessed as increase in ROS positive cells at 0 to 0.60 uM incubated for 72 hrs by DCF-DA staining based flow cytometry analysis (reference value: 4.21%); assay type: functional; settings: dose 0-0.6 µM
HepG2 [38] = assay: Downregulation of p-AKT protein expression in human HepG2 cells incubated for 72 hrs by Western blot analysis; assay type: functional, cell-based; settings: dose 0-0.6 µM
[39] = Half life in Sprague-Dawley rat at 1 mg/kg, iv measured for 24 hrs by LC-MS/MS analysis; assay type: ADME, organism-based; settings: in vivo
HepG2 [40] = assay: Induction of apoptosis in human HepG2 cells assessed as increase in cytochrome C protein expression incubated for 72 hrs by Western blot analysis; assay type: functional, cell-based; settings: dose 0.15-0.6 µM
[41] = Drug concentration in Sprague-Dawley rat plasma at 1 mg/kg, iv measured after 5 mins by LC-MS/MS analysis; assay type: ADME, organism-based
H22 [42] = assay: Antitumor activity against […] xenografted in ICR mouse assessed as inhibition of tumor growth at 10 mg/kg, iv administered for 21 days and measured every 2 days relative to control; assay type: functional; settings: H22, 504 h, time 21 day, read-out: TGI
SK-HEP1 = assay: Antiproliferative activity against human SK-HEP1 cells assessed as inhibition of cell growth incubated for 72 hrs by MTT assay; assay type: functional, cell-based; settings: SK-HEP1, 72 h
H22 [43] = assay: Antitumor activity against […] xenografted in ICR mouse assessed as reduction in tumor weight administered intravenously for 21 days; assay type: functional, cell-based; settings: dose 10-20 mg/kg, route iv, time 21.0 day

In the case of CCCCCCCCc1c2[n+](cc3c(NCCCN4CCOCC4)c(OC)ccc13)CCc1cc3c(cc1-2)OCO3, the ΔTm (Quadruplex DNA [1]) is reported as 17.4 °C, the ΔTm (Quadruplex DNA [2]) is reported as 18.5 °C and the IC50 (HepG2 [3]) is reported as 1.12 µM. It also gave a ΔTm (DNA) of 0.6 °C.

For CCCCCCCCc1c2[n+](c3c4c(c(OC)ccc14)N(CCN(C)C)C=C3)CCc1cc3c(cc1-2)OCO3, the ΔTm (Quadruplex DNA [1]) was 21.1 °C, the ΔTm (Quadruplex DNA [2]) was 21.8 °C and the IC50 (HepG2 [3]) was 1.01 µM. The ΔTm (DNA) was 0.4 °C.

In the case of CCCCCCCCc1c2[n+](cc3c(NCCCN4CCCC4)c(OC)ccc13)CCc1cc3c(cc1-2)OCO3, the ΔTm (Quadruplex DNA [1]) is reported as 19.3 °C, the ΔTm (Quadruplex DNA [2]) is reported as 23.1 °C and the IC50 (HepG2 [3]) is reported as 1.37 µM. The ΔTm (DNA) was 1.8 °C.

With CCCCCCCCc1c2[n+](cc3c(NCCN(C)C)c(OC)ccc13)CCc1cc3c(cc1-2)OCO3.[Cl-] the Activity [4] was “Non-Toxic”, the Activity (HepG2 [5]) was “Dose-Dependent Effect” and the Activity [6] was “Non-Toxic”. For the same molecule, the Activity (HepG2 [7]) was “inactive”, the Activity (HepG2 [8]) was 27.61% and the IC50 [9] was 8.62 µM. For the same molecule, the inhibition in vivo at 20 mg/kg (H22 [10]) was 62.9%, the Activity (HepG2 [11]) was 21.63% and the ΔTm (Quadruplex DNA [1]) was 20.9 °C. The Activity [12] was “Non-Toxic”, the “Ratio IC50” value (HepG2 [13]) was >40 and the Activity (HepG2 [14]) was “Dose-Dependent Effect”. The Activity (HepG2 [15]) was “inactive”, the Activity [16] was “Non-Toxic” and the Activity (H22 [17]) was “Dose-Dependent Effect”. The Activity (HepG2 [18]) was “Dose-Dependent Effect”, the ΔTm (Quadruplex DNA [2]) was 21.4 °C and the Activity (HepG2 [19]) was “Dose-Dependent Effect”. The Activity (HepG2 [20]) was 51.25%, the Activity (HepG2 [21]) was 3.67% and the Activity (Quadruplex DNA [22]) was “Active”. The Activity (HepG2 [23]) was “Active”, the Activity [24] was “Non-Toxic” and the AUC(0-t) at 24 h [25] was 674 ng·h/mL. The Activity (HepG2 [26]) was “Dose-Dependent Effect”, the Activity (HepG2 [27]) was “Dose-Dependent Effect” and the IC50 (Huh-7) was 0.58 µM. The IC50 (HepG2 [28]) was 2.12 µM, the IC50 (HepG2 [3]) was 0.64 µM and the Activity (Quadruplex DNA [29]) was “Active”. For the same molecule, the ΔTm (DNA) was 0.2 °C, the C0 [30] was 872 ng/mL and the Activity [31] was “Non-Toxic”. The Activity (HepG2 [32]) was 40.73%, the “Ratio IC50” value (HepG2 [33]) was >10 and the IC50 (Hep 3B2) was 1.15 µM. For the same molecule, the Activity (Quadruplex DNA [34]) was “Dose-Dependent Effect”, the MRT last at 24 h [35] was 1.81 h and the clearance [36] was 21.7 mL/min/kg. For the same molecule, the Activity (HepG2 [37]) was 52.48%, the Activity (HepG2 [38]) was “Dose-Dependent Effect” and the half-life [39] was 2.62 h. The Activity (HepG2 [40]) was “Dose-Dependent Effect”, the concentration at 5 min [41] was 758 ng/mL and the inhibition in vivo at 10 mg/kg (H22 [42]) was 51.8%. The IC50 (SK-HEP1) was 1.07 µM and the Activity (H22 [43]) was “Dose-Dependent Effect”.

O=P1(N(CCCl)CCCl)NCCCO1 (stereo not given) [CYCLOPHOSPHAMIDE ANHYDROUS] showed an inhibition in vivo at 20 mg/kg (H22 [10]) of 64.6%.
